# Tested on: Cylas formicarius
# Assay: Insecticidal activity in adult Cylas formicarius elegantulus measured per insect after 24 hrs
# Type: functional
row,Structure (SMILES),LD50 [mg]
1,C[C@@H]1CC(c2ccoc2)=C[C@]2(C1)C[C@H](C)C(=O)O2 [CAPRARIOLIDE A],0.902
2,C[C@@H]1CC(c2ccoc2)=C[C@]2(C1)C[C@@H](C)C(=O)O2 [CAPRARIOLIDE B],1.102
3,C=CCc1ccc(O)c(OC)c1 [EUGENOL],0.605

# Reference: ChEMBL document CHEMBL1155623, “New skeletal sesquiterpenoids, caprariolides A-D, from Capraria biflora and their insecticidal activity” (2000)
